Patent publication US8211909B2, “Treatment of antibiotic-resistant bacteria infection” (TaiGen Biotechnology Co., Ltd., priority 2008, dated 2012)
Converted amounts (≈) assume the structure as drawn. Where two headings read alike, the source gives them in different places.

How the values were obtained:
[1] = system: Staphylococcus aureus strains (MRSA, hVISA, VISA, VRSA, quinolone-resistant MRSA); assay: MIC by agar dilution against Staphylococcal strains (MRSA, hVISA, VISA, VRSA, quinolone-resistant MRSA); format: cell-based; conditions: Staphylococcus aureus
Protocol: Compound 1 was tested for its inhibitory effect against 26 Methicillin-resistant Staphylococcus aureus (MRSA) strains, 2 hetero-Vancomycin intermediate Staphylococcus aureus (hVISA) strains, 24 Vancomycin-intermediate Staphylococcus aureus (VISA) strains, 5 Vancomycin-resistant Staphylococcus aureus (VRSA) strains, and 31 quinolone-resistant Vancomycin-susceptibale MRSA strains with defined mutations in QRDR. These mutations were determined by sequencing analysis of the QRDR (gyrA, gyrB, grlA, and grlB). Efflux testing was performed by the reserpine method (Brenwald, et al., Antimicrob. Agents Chemother. 1998, 42: 2032-2035).

[2] = system: Methicillin-resistant Staphylococcus aureus (MRSA) isolates; assay: MIC by broth microdilution (CLSI) against CAN-ICU MRSA isolates; format: cell-based; conditions: Staphylococcus aureus; for MIC50: read-out: MIC50; for MIC90: read-out: MIC90
From the text: MRSA isolates (n=193) were obtained as part of the Canadian National Intensive Care Unit (CAN-ICU) Study. 19 medical centers from all regions of Canada with active ICUs participated in the CAN-ICU study included. They were requested to only obtain “clinically significant” specimens from patients with a presumed infectious disease. Surveillance swabs, eye, ear, nose and throat swabs were excluded. Anaerobic organisms and fungal organisms were also excluded.
From September 2005-June 2006 (inclusive), each center collected a maximum of 300 consecutive pathogens isolated from blood, urine, tissue/wound, and respiratory specimens (one pathogen per cultured site per patient) of ICU patients. These isolates were shipped to the reference laboratory (Health Sciences Centre, Winnipeg, Canada) on Amies charcoal swabs, subcultured in appropriate media, and stocked in skim milk at −80° C.
All isolates underwent mecA PCR, as well as molecular characterization (including PVL analysis and fingerprinting), as previously described, to assess whether they were community-associated or healthcare-associated (Christianson et al., J Clin Microbiol. 2007, 45 (6): 1904-11; Mulvey et al., J Clin. Microbiol. 2001, 39(10): 3481-5; Mulvey et al., Emerg Infect Dis. 2005,11(6): 844-50; Oliveira et al., Antimicrob Agents Chemother. 2002, 46(7): 2155-61). The isolates were also subtyped using pulsed-field gel electrophoresis (PFGE) following the Canadian standardized protocol as previously described (Mulvey et al., J Clin Microbiol. 2001, 39(10): 3481-5). Their PFGE fingerprints thus obtained were analyzed with BioNumerics v3.5 (Applied Maths St. Marten-Latem, Belgium) using a position tolerance of 1.0 and an optimization of 1.0. Strain relatedness was determined as previously described (Tenover et al., 1995). The fingerprints of the isolates were compared to the national MRSA fingerprint database and were grouped into one of 10 Canadian epidemic MRSA (CMRSA-1, CMRSA-2, etc) as previously described (Mulvey et al., Emerg Infect Dis. 2005,11(6):844-50).
Compound 1 and other antibiotics were tested for their inhibitory activity against the MRSA isolates using the broth microdilution guidelines as stipulated by the Clinical and Laboratory Standards Institute.

[3] = system: S. aureus (MSSA, CA-MRSA, HA-MRSA, VISA, VRSA); assay: CANWARD 2007 / NARSA gram-positive cocci, CLSI broth microdilution; format: cell-based, Staphylococcus aureus; set-up: MIC50 / MIC90: unit not given here
Protocol: (§1) From January-December 2007, 12 hospitals across Canada submitted isolates from patients attending hospital clinics, emergency rooms, medical and surgical wards, and intensive care units. 7881 isolates (CANWARD 2007) were collected including 3473 gram-positive cocci. Susceptibility testing for Compound 1 and Levofloxacin was performed using the Clinical and Laboratory Standards Institute broth microdilution.

S. pneumoniae = assay: CANWARD 2007 gram-positive cocci, CLSI broth microdilution; format: cell-based, Streptococcus pneumoniae; set-up: MIC50 / MIC90: unit not given here
Protocol: as §1

[4] = system: methicillin-resistant Streptococcus pneumoniae; assay: MIC by broth microdilution, Taiwan clinical isolates (Compound 1′); format: cell-based; conditions: for MIC50 / MIC90: Streptococcus pneumoniae
Protocol: (§2) The Staphylococcus aureus and Streptococcus pneumoniae isolates were obtained by 10 medical centers in all regions of Taiwan. MICs were determined using the broth microdilution method.

H. pylori isolates = assay: MIC by agar dilution against 200 H. pylori isolates (Taiwan); format: cell-based, Helicobacter pylori
Protocol: MICs were determined using the agar dilution methods recommended by the Clinical and Laboratory Standards Institute (CLSI-M100-S18).

E. faecalis = assay: CANWARD 2007 gram-positive cocci, CLSI broth microdilution; format: cell-based; set-up: unit not given beside the values; conditions: E. faecalis (81)
Protocol: as §1

[5] = system: Staphylococcus epidermidis (MSSE, MRSE); assay: as above; format: cell-based; set-up: MIC50 / MIC90: unit not given beside the values
Protocol: as §1

[6] = system: methicillin-resistant Staphylococcus aureus; assay: MIC by broth microdilution, Taiwan clinical isolates (Compound 1′); format: cell-based; conditions: for MIC50 / MIC90: Staphylococcus aureus, MRSA
Protocol: as §2

[7] = hVISA(2) + VISA (24) + VRSA (5)
[8] = MRSA / USA100, USA 100/800 (HA-MRSA)
[9] = MRSA / USA200, USA 200 (HA-MRSA)
[10] = MRSA / USA300, USA 300 (CA-MRSA)
[11] = MRSA / USA400, USA 400 (CA-MRSA)
[12] = MRSA / USA600, USA 600 (HA-MRSA)
[13] = Helicobacter pylori, 200 isolates of H. pylori
[14] = MRSP-Levo (R): Levofloxacin resistant strain
[15] = MRSP-Levo (S): Levofloxacin sensitive strain
[16] = MRSA-CIP (R): MRSA-ciprofloxacin resistant strain
[17] = MRSA-CIP (S): MRSA-ciprofloxacin sensitive strain

With `C[C@H]1COc2c(N3CCN(C)CC3)c(F)cc3c(=O)c(C(=O)O)cn1c23` [Levofloxacin] the MIC50 ([1]; MRSA (26)) was 0.25 µg/mL (≈ 0.692 µM), the MIC90 ([1]; MRSA (26)) was 0.5 µg/mL (≈ 1.38 µM) and the MIC50 ([1]; Quinolone-resistant MRSA (31)) was 16 µg/mL (≈ 44.3 µM). For the same molecule, the MIC90 ([1]; Quinolone-resistant MRSA (31)) was 32 µg/mL (≈ 88.6 µM), the MIC50 [1, 7] was 16 µg/mL and the MIC90 [1, 7] was 32 µg/mL. The MIC ([1]; read-out: MIC Range, MRSA (26)) was 0.25 to 1 µg/mL (≈ 0.692 to 2.77 µM), the MIC50 [2, 8] was over 32 µg/mL and the MIC90 [2, 8] was over 32 µg/mL. The MIC50 [2, 9] was 32 µg/mL (≈ 88.6 µM), the MIC90 [2, 9] was over 32 µg/mL and the MIC50 [2, 10] was 8 µg/mL (≈ 22.1 µM). The MIC90 [2, 10] was 8 µg/mL (≈ 22.1 µM), the MIC50 [2, 11] was 0.25 µg/mL (≈ 0.692 µM) and the MIC90 [2, 11] was 0.25 µg/mL (≈ 0.692 µM). The MIC50 [2, 12] was 32 µg/mL (≈ 88.6 µM), the MIC90 [2, 12] was over 32 µg/mL and the MIC50 ([2]; MRSA (n = 193)) was over 32 µg/mL. The MIC90 ([2]; MRSA (n = 193)) was over 32 µg/mL, the MIC ([2]; MRSA (n = 193), read-out: MIC Range Max) was over 32 µg/mL and the MIC ([2]; MRSA (n = 193), read-out: MIC Range Min) was 0.25 µg/mL (≈ 0.692 µM). For the same molecule, the MIC50 ([3]; CA-MRSA (23)) was 4, the MIC90 ([3]; CA-MRSA (23)) was 8 and the MIC50 ([3]; HA-MRSA (91)) was >32/>32. The MIC90 ([3]; HA-MRSA (91)) was >32/>32, the MIC50 ([3]; MSSA (372)) was 0.25 and the MIC90 ([3]; MSSA (372)) was 4. For the same molecule, the MIC50 ([3]; VISA (12), NARSA isolates) was 32/>32, the MIC90 ([3]; VISA (12), NARSA isolates) was 32/>32 and the “median MIC (single value under head MIC50/MIC90)” value ([3]; VRSA (7), NARSA isolates) was 32. It also gave an MIC50 (S. pneumoniae; SPN CipR (29)) of 2, an MIC90 (S. pneumoniae; SPN CipR (29)) of 16 and an MIC50 (S. pneumoniae; SPN PenI (103)) of 0.5. It also gave an MIC90 (S. pneumoniae; SPN PenI (103)) of 1, an MIC50 (S. pneumoniae; SPN PenR (34)) of 0.5 and an MIC90 (S. pneumoniae; SPN PenR (34)) of 2. For the same molecule, the MIC50 (S. pneumoniae; SPN PenS (519)) was 0.5, the MIC90 (S. pneumoniae; SPN PenS (519)) was 1 and the MIC50 (S. pneumoniae; SPN-All (656)) was 0.5. The MIC90 (S. pneumoniae; SPN-All (656)) was 1, the “MIC50/MIC90 (single value printed)” value ([4]; MRSP-Levo (R)) was over 128 µg/mL and the “MIC50/MIC90 (single value printed)” value ([4]; MRSP-Levo (S)) was 16 µg/mL (≈ 44.3 µM). The “share of isolates resistant” value (H. pylori isolates; 200 H. pylori isolates, resistance: amoxicillin MICs≧0.5, clarithromycin ≧1, metronidazole ≧8, ciprofloxacin ≧1, levofloxacin ≧1 μg/mL) was 2%, the MIC50 (H. pylori isolates; [13]) was 250 µg/mL (≈ 692 µM) and the MIC90 (H. pylori isolates; [13]) was 500 µg/mL (≈ 1380 µM). For the same molecule, the MIC50 (E. faecalis) was 2, the MIC90 (E. faecalis) was over 32 and the MIC50 ([5]; MRSE (9)) was >32/>32. For the same molecule, the MIC90 ([5]; MRSE (9)) was >32/>32, the MIC50 ([5]; MSSE (32)) was 4 and the MIC90 ([5]; MSSE (32)) was over 32.

In the case of `COc1c(N2C[C@H](C)C[C@H](N)C2)ccc2c(=O)c(C(=O)O)cn(C3CC3)c12` [Compound 1′, (3S,5R)-7-[3-amino-5-methyl-piperidinyl]-1-cyclopropyl-1,4-dihydro-8-methoxy-4-oxo-3-quinolinecarboxylic acid], the MIC50 [4, 14] is reported as 0.25 µg/mL (≈ 0.673 µM), the MIC90 [4, 14] is reported as 1 µg/mL (≈ 2.69 µM) and the MIC50 [4, 15] is reported as 0.03 µg/mL (≈ 0.0808 µM). The MIC90 [4, 15] was 0.06 µg/mL (≈ 0.162 µM), the “inhibition (in words)” value ([4]; methicillin-resistant Streptococcus pneumoniae) was “effective” and the MIC50 [6, 16] was 1 µg/mL (≈ 2.69 µM). The MIC90 [6, 16] was 1 µg/mL (≈ 2.69 µM), the MIC50 [6, 17] was 0.03 µg/mL (≈ 0.0808 µM) and the MIC90 [6, 17] was 0.06 µg/mL (≈ 0.162 µM). The “inhibition (in words)” value ([6]; methicillin-resistant Staphylococcus aureus) was “effective”.
